We go through 8 compounds from ChEMBL document CHEMBL1201862, “PubChem BioAssay data set” (2004).

Structures are written as SMILES.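 Assay format: 96-well plates, 48-hour exposure. Abbreviation: GI50, concentration required for 50% inhibition of growth.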 Active and inactive are the calls of the source. Cut-off read from the data, not from the text of the source: active = GI50 up to about 1.1 µM and inactive = higher.

Some test systems named below: 786-0; CAKI-1; COLO 205; HCC 2998; HOP-92; MOLT-4; Malme-3M; NCI-H226; NCI-H522; NCI/ADR-RES; OVCAR-5; RPMI-8226; SF-268; SK-MEL-2; SN12C; SNB-19; U-251; UACC-257; M14; BT-549.
Experiment in all cases: DTP human tumour cell line panel, 48 h

By GI50 is commonly meant the concentration at which growth is held to half of that of the control. With `c1ccc(/N=c2/sc3ccccc3s/c2=N/c2ccccc2)cc1`, the GI50 was 1.74 µM (inactive) in the test with 786-0; 1.87 µM (inactive) in the test on CAKI-1; 1.92 µM (inactive) in the test with COLO 205; 1.84 µM (inactive) in the test on HCC 2998; 2 µM (inactive) in the test on HOP-92; 5.18 µM (inactive) in the test with MOLT-4. For the same compound, the GI50 is 1.86 µM (inactive) with Malme-3M; 2.88 µM (inactive) in the test on NCI-H226; 1.56 µM (inactive) in the test on NCI-H522; 2.67 µM (inactive) with NCI/ADR-RES; 2.11 µM (inactive) in the test on OVCAR-5; 4.57 µM (inactive) in the test with RPMI-8226. Moreover, the GI50 is 3.12 µM (inactive) in the test with SF-268; 1.86 µM (inactive) in the test with SK-MEL-2; 1.75 µM (inactive) in the test on SN12C; 4.71 µM (inactive) in the test on SNB-19; 1.86 µM (inactive) in the test on U-251; 3.72 µM (inactive) with UACC-257.
In the case of `Cc1ccc(NC2=NCCO2)c2c1CCC2`, the GI50 was 56 µM (inactive) in the test with 786-0; > 100 µM (inactive) with CAKI-1; 23.6 µM (inactive) in the test on COLO 205; 32 µM (inactive) in the test on HCC 2998; 27.3 µM (inactive) with HOP-92; 21 µM (inactive) in the test with M14. Besides, the GI50 with MOLT-4 is 33.9 µM (inactive); in the test with Malme-3M, 27.8 µM (inactive); with NCI-H226, 32.4 µM (inactive); with NCI-H522 it was 45.8 µM (inactive); in the test on NCI/ADR-RES, 20.4 µM (inactive); in the test on OVCAR-5 it was 26 µM (inactive). Also, the GI50 is 34.8 µM (inactive) with RPMI-8226; 41.8 µM (inactive) in the test on SF-268; 20 µM (inactive) in the test with SK-MEL-2; 45 µM (inactive) with SN12C; 58.9 µM (inactive) with SNB-19; 39.4 µM (inactive) in the test with U-251.
For `COc1ccc(C2OC(=O)c3c2ccc2ccccc32)c(C)c1` (configuration not stated), the GI50 in the test with 786-0 was 3.33 µM (inactive); in the test with BT-549, 10.5 µM (inactive); in the test on COLO 205 it was 1.15 µM (inactive); with HCC 2998, 1.02 µM (active); in the test on HOP-92, 8.04 µM (inactive); in the test on M14, 1.32 µM (inactive). The GI50 in the test with MOLT-4 was 2.73 µM (inactive); in the test on Malme-3M it was 1 µM (active); with NCI-H226, 5.25 µM (inactive); in the test on OVCAR-5, 13.2 µM (inactive); in the test on RPMI-8226 it was 3.18 µM (inactive); with SK-MEL-2 it was 1.34 µM (inactive). The GI50 is 1.21 µM (inactive) in the test on SN12C, 4.8 µM (inactive) in the test on SNB-19, 3.43 µM (inactive) in the test with U-251 and 3.78 µM (inactive) in the test with UACC-257.
As to `COC(=O)C1CC(C(=O)OC)c2nc3cc([N+](=O)[O-])ccc3nc21` (configuration not stated), the GI50 is > 87.9 µM (inactive) in the test on 786-0; 59.8 µM (inactive) with CAKI-1; 49.1 µM (inactive) in the test with COLO 205; 30.5 µM (inactive) in the test on HCC 2998; > 100 µM (inactive) with HOP-92; 39 µM (inactive) with M14. For the same compound, the GI50 with MOLT-4 was 19.4 µM (inactive); in the test with Malme-3M, > 100 µM (inactive); with NCI-H226, > 100 µM (inactive); with NCI-H522 it was 7.93 µM (inactive); in the test with OVCAR-5, > 100 µM (inactive); in the test with RPMI-8226, 26.1 µM (inactive). Besides, the GI50 was 26.4 µM (inactive) in the test on SF-268; > 100 µM (inactive) in the test with SK-MEL-2; > 79.3 µM (inactive) with SN12C; > 67.9 µM (inactive) in the test with SNB-19; 98.2 µM (inactive) in the test on U-251; 55.6 µM (inactive) in the test on UACC-257.
Regarding `OC1c2ccccc2CC12Cc1ccccc1C2` (configuration not stated), the GI50 in the test with 786-0 was > 100 µM (inactive); in the test with CAKI-1, > 100 µM (inactive); with COLO 205, 31.2 µM (inactive); in the test on HCC 2998, > 100 µM (inactive); with HOP-92, 64 µM (inactive); in the test on M14 it was > 100 µM (inactive). For the same compound, the GI50 was 24.5 µM (inactive) in the test on MOLT-4; 92.9 µM (inactive) with Malme-3M; 0.35 µM (active) in the test with NCI-H226; 62.5 µM (inactive) with NCI-H522; 54.7 µM (inactive) in the test on NCI/ADR-RES; > 100 µM (inactive) in the test on OVCAR-5. Besides, the GI50 is 48.2 µM (inactive) in the test on RPMI-8226; > 100 µM (inactive) in the test on SF-268; > 100 µM (inactive) in the test with SK-MEL-2; 78.9 µM (inactive) in the test on SN12C; > 100 µM (inactive) with SNB-19; > 100 µM (inactive) in the test with U-251. Besides, the GI50 in the test on UACC-257 is 44.9 µM (inactive).
`Cn1nc2n(c1=O)CCCN2`: the GI50 in the test on 786-0, with COLO 205, with HCC 2998, in the test with HOP-92, with Malme-3M and in the test on NCI-H226 was > 100 µM (inactive) each time. Also, the GI50 in the test on NCI-H522, with NCI/ADR-RES, in the test on OVCAR-5, with RPMI-8226, in the test with SF-268 and in the test with SN12C was > 100 µM (inactive) throughout. In addition, the GI50 in the test on SNB-19, in the test on U-251 and in the test on UACC-257 was > 100 µM (inactive) throughout.
In the case of `CCn1c2c(n(CC)c1=S)-c1c(n(CC)c(=S)n1CC)SSSS2`, the GI50 in the test with 786-0 was 16.7 µM (inactive); in the test with BT-549, 15.4 µM (inactive); in the test on CAKI-1 it was 17.9 µM (inactive); in the test on COLO 205 it was 5.53 µM (inactive); in the test on HCC 2998, 25.4 µM (inactive); with HOP-92, 3.33 µM (inactive). For the same compound, the GI50 is 6.35 µM (inactive) with M14; 2.31 µM (inactive) in the test with MOLT-4; 2.83 µM (inactive) in the test on Malme-3M; 31.8 µM (inactive) in the test on NCI-H226; 1.88 µM (inactive) in the test with NCI-H522; 17.3 µM (inactive) in the test on OVCAR-5. The GI50 with RPMI-8226 is 2.82 µM (inactive); in the test on SF-268, 21.1 µM (inactive); in the test with SK-MEL-2, 16.6 µM (inactive); in the test with SN12C it was 11.2 µM (inactive); in the test on SNB-19, > 84.1 µM (inactive); with U-251, 22.2 µM (inactive). For the same compound, the GI50 in the test with UACC-257 is 8.57 µM (inactive).
`O=C(O)c1cccc(S(=O)(=O)NN2C(=O)CSC2c2ccccc2)c1` (configuration not stated): the GI50 with 786-0, with BT-549, in the test on CAKI-1, with COLO 205, in the test with HCC 2998 and in the test on HOP-92 was > 100 µM (inactive) in each case. Further, the GI50 in the test with M14 was > 100 µM (inactive); in the test with MOLT-4, > 100 µM (inactive); in the test with Malme-3M, > 100 µM (inactive); in the test with NCI-H226, > 100 µM (inactive); with NCI-H522, 27.6 µM (inactive); in the test with OVCAR-5 it was > 100 µM (inactive). Moreover, the GI50 was 35.3 µM (inactive) with RPMI-8226; > 100 µM (inactive) in the test with SF-268; > 100 µM (inactive) in the test with SK-MEL-2; > 100 µM (inactive) in the test with SN12C; > 100 µM (inactive) with SNB-19; > 100 µM (inactive) with U-251. Moreover, in the test on UACC-257, the GI50 was > 100 µM (inactive).
